# Laboratory results as given in patent US4365989A, “2-Thiocyanomethylthio-4,4-dialkyl-5-substituted-thiazoline fungicides” (Chevron Research Company, priority 1982, dated 1982).
# Columns and labels:
# Septoria apii = type: in vivo; conditions: 250 ppm; celery (Utah) plants
# Soybean [1] = assay: Post-emergent herbicidal test, Soybean; type: in vivo; conditions: Glycine max, 504 h; post-emergence; 33 micrograms/cm^2; 3 weeks; read-out: Herbicidal Activity Post-Emergence % Control Soybean
# [2] = test system: Watergrass (Ethinochloa crusgalli); assay: Pre-emergent herbicidal test, Watergrass; type: in vivo; conditions: 504 h; pre-emergence; 33 micrograms/cm^2; 3 weeks
# Method: (§1) An acetone solution of the test compound was prepared by mixing 750 mg of the compound, 220 mg of a nonionic surfactant and 25 ml of acetone. This solution was added to approximately 125 ml of water containing 156 mg of surfactant.
# (§2) Seeds of the test vegetation were planted in a pot of […] and the test solution was sprayed uniformly onto the soil surface at a dose of 33 micrograms/cm^2. The pot was watered and placed in a greenhouse. […] At the end of this period, the herbicidal effectiveness of the compound was rated based on the physiological observations. A 0-to-100 scale was used, 0 representing no phytotoxicity, 100 representing complete kill.
# [3] = test system: Pigweed (Amaranthus retraflexus); assay: Pre-emergent herbicidal test, Pigweed; type: in vivo; conditions: 504 h, pre-emergence, 33 micrograms/cm^2, 3 weeks
# Method: as §1, §2
# Soybean [4] = assay: Pre-emergent herbicidal test, Soybean; type: in vivo; conditions: Glycine max, 504 h; pre-emergence; 33 micrograms/cm^2; 3 weeks; read-out: Herbicidal Activity Pre-Emergence % Control Soybean
# Method: as §1, §2
# [5] = test system: Watergrass (Ethinochloa crusgalli); assay: Post-emergent herbicidal test, Watergrass; type: in vivo; conditions: 504 h; post-emergence; 33 micrograms/cm^2; 3 weeks
# Aspergillus Niger = assay: Mycelial inhibition, Aspergillus; type: cell-based; conditions: 24 hours, relative to standard DIFOLATAN, read-out: Mycelial inhibition, % Standard, Asper.
# Method: (§3) A number of the compounds of the present invention were evaluated for in-vitro fungicidal effectiveness by means of a mycelial inhibition test. This test is designed to measure the fungitoxic activity of fungicidal chemicals in terms of their degree of inhibition of mycelium growth. Each compound to be tested was dissolved in acetone to 500 ppm concentration. Paper strips were infused with the particular mycelium growth by covering the paper with a potato dextrose broth culture of mycelial suspension. The papers were then placed on potato dextrose agar plates and sprayed by means of a microsprayer with the fungicidal solution. The treated paper strips were incubated at 25° C. and the data is taken after 24 hours. Fungicidal activities are measured by a zone of inhibited mycelial growth from the center of the paper strip. The effectiveness of the compounds tested for fungicidal activity is reported in Table IIa for those compounds which were effective in inhibiting mycelial growth. The activity is reported in terms of [formula]
# Botrytis Cineria = assay: Mycelial inhibition, Botrytis; type: cell-based; conditions: 24 hours, relative to standard DIFOLATAN
# Method: as §3
# [6] = test system: Crabgrass (Digitaria sanguinalis); assay: Pre-emergent herbicidal test, Crabgrass; type: in vivo; conditions: 504 h, pre-emergence, 33 micrograms/cm^2, 3 weeks
# Method: as §1, §2
# [7] = test system: Pigweed (Amaranthus retraflexus); assay: Post-emergent herbicidal test, Pigweed; type: in vivo; conditions: 504 h, post-emergence, 33 micrograms/cm^2, 3 weeks
# Phytophthora infestans = assay: whole plant or invertebrate; type: in vivo; conditions: in Solanum lycopersicum, read-out: % Control Tom. L. Bl.
# [8] = test system: Mustard (Brassica arvensis); assay: Pre-emergent herbicidal test, Mustard; type: in vivo; conditions: 504 h, pre-emergence, 33 micrograms/cm^2, 3 weeks
# Method: as §1, §2
# Fusarium Moniliforme = assay: Mycelial inhibition, Fusarium; type: cell-based; conditions: Fusarium verticillioides, 24 hours, relative to standard DIFOLATAN
# Method: as §3
# [9] = test system: Crabgrass (Digitaria sanguinalis); assay: Post-emergent herbicidal test, Crabgrass; type: in vivo; conditions: 504 h, post-emergence, 33 micrograms/cm^2, 3 weeks
# [10] = test system: Lambsquarter (Chenopodium album); assay: Post-emergent herbicidal test, Lambsquarter; type: in vivo; conditions: 504 h, post-emergence, 33 micrograms/cm^2, 3 weeks, read-out: Herbicidal Activity Post-Emergence % Control L'Qtr.
# [11] = test system: Lambsquarter (Chenopodium album); assay: Pre-emergent herbicidal test, Lambsquarter; type: in vivo; conditions: 504 h, pre-emergence, 33 micrograms/cm^2, 3 weeks, read-out: Herbicidal Activity Pre-Emergence % Control L'Qtr.
# Method: as §1, §2
# Lemna minor = assay: Aquatic weeds control, Lemna; type: in vivo; conditions: 7 to 10 days, read-out: Algicidal Activity % Control Lemna
# Method: (§4) Representative compounds of the invention were tested as aquatic herbicides and algicides by the following method. The weed test species were Lemna minor, Elodea canadensis and the algae used was Spirulina maxima.
# (§5) An acetone solution of the test compound and a small amount of an alkylarylpolyoxyethylene glycol-containing surfactant was prepared. This solution was mixed with a nutrient solution in quantity sufficient to give a concentration of 2 ppm. Eight oz. plastic cups were filled with 150 ml of this solution. A sample of the test, Lemna and Elodea, was added together to each cup. Forty ml of Spirulina culture with the 2 ppm treatment was placed in 11/2 oz plastic cups (#4 glass vials used after June 9, 1980). The containers were then placed in an illuminated environment maintained at a temperature of about 20° C. for incubation. The containers were observed periodically for growth (as compared to an untreated check). The effectiveness of the test compound was determined based on a final observation of growth after 7 to 10 days. The results of the test on a 0-to-100 basis--0 indicating no effectiveness and 100 indicating complete effectiveness--are reported in Table IV.
# Rhizoctonia solani = assay: Mycelial inhibition, Rhizoctonia; type: cell-based; conditions: 24 hours, relative to standard DIFOLATAN, read-out: Mycelial inhibition, % Standard, Rhizoc.
# Method: as §3
# [12] = test system: Mustard (Brassica arvensis); assay: Post-emergent herbicidal test, Mustard; type: in vivo; conditions: 504 h, post-emergence, 33 micrograms/cm^2, 3 weeks
# Pythium Ultimum = assay: Mycelial inhibition, Pythium; type: cell-based; conditions: Globisporangium ultimum, 24 hours, relative to standard DIFOLATAN
# Method: as §3
# Spirulina maxima = assay: Algae control, Spirulina; type: cell-based; conditions: Limnospira maxima, 7 to 10 days, read-out: Algicidal Activity % Control Spirulina
# Method: as §4, §5
# Elodea canadensis = assay: Aquatic weeds control, Elodea; type: in vivo; conditions: 7 to 10 days, read-out: Algicidal Activity % Control Elodea
# Method: as §4, §5
# Plasmopara viticola = assay: Grape Downy Mildew control, detached grape leaves; type: in vivo; conditions: in Vitis vinifera, Vitis vinifera Emperor detached leaves, read-out: % Control Grape D.M.
# Method: The compounds of the invention were tested for the control of the grape downy mildew organism Plasmopara viticola. Detached leaves, between 70 and 85 mm in diameter, of 7-week old Vitis vinifera cultivar Emperor grape seedlings were used as hosts. The leaves were sprayed with a 250 ppm solution of the test compound in acetone. The sprayed leaves were dried, inoculated with a spore suspension of the organism, placed in a humid environmental chamber and incubated at 66° to 68° F. and about 100% relative humidity. After incubation for two days, the plants were then held in a greenhouse seven to nine days; then the amount of disease control was determined. The percent disease control provided by a given gest compound was based on the percent disease reduction relative to untreated check plants.
SMILES,% Control Cel. L. Bl. (Septoria apii) [%],plant injury at 33 µg/cm2 (Soybean [1]) [%],pest or weed control at 33 µg/cm2 [2] [%],pest or weed control at 33 µg/cm2 [3] [%],plant injury at 33 µg/cm2 (Soybean [4]) [%],pest or weed control at 33 µg/cm2 [5] [%],inhibition at 500 ppm (Aspergillus Niger) [%],inhibition at 500 ppm (Botrytis Cineria) [%],pest or weed control at 33 µg/cm2 [6] [%],pest or weed control at 33 µg/cm2 [7] [%],pest or weed control at 250 ppm (Phytophthora infestans) [%],pest or weed control at 33 µg/cm2 [8] [%],inhibition at 500 ppm (Fusarium Moniliforme) [%],pest or weed control at 33 µg/cm2 [9] [%],pest or weed control at 33 µg/cm2 [10] [%],pest or weed control at 33 µg/cm2 [11] [%],activity at 2 ppm (Lemna minor) [%],inhibition at 500 ppm (Rhizoctonia solani) [%],pest or weed control at 33 µg/cm2 [12] [%],inhibition at 500 ppm (Pythium Ultimum) [%],further results
CC1(C)N=C(SCSC#N)SC1=CBr [Compound 4],23,0,0,0,0,0,63,36,0,0,0,0,77,0,0,0,35,92,0,14,activity at 2 ppm (Spirulina maxima): 30%; activity at 2 ppm (Elodea canadensis): 80%; pest or weed control at 250 ppm (Plasmopara viticola): 100%
CC1(C)N=C(SCSC#N)SC1=CCl [Compound 3],15,0,0,35,0,0,69,64,0,0,21,15,115,0,0,25,40,55,0,40,activity at 2 ppm (Spirulina maxima): 40%; activity at 2 ppm (Elodea canadensis): 90%; pest or weed control at 250 ppm (Plasmopara viticola): 79%
